This assay in a line: Inhibition of Rous sarcoma virus pp60v-src.

Molecules are shown by their SMILES.

The compound `CCCCCCCCC(Cl)C(Cl)C(O)C(Cl)C(Cl)C(Cl)CCCCCCCC/C(Cl)=C\OS(=O)(=O)O` (stereo unspecified) [MALHAMENSILIPIN A] came in with an IC50 of 35 µM.

The values above are taken from ChEMBL document CHEMBL1149060, “Structure of malhamensilipin A, an inhibitor of protein tyrosine kinase, from the cultured chrysophyte Poterioochromonas malhamensis” (J Nat Prod, 1994).
